13 compounds from US9175003B2, “Substituted azoanthracene derivatives and intermediates for preparation thereof” (TransTech Pharma, LLC, priority 2009, dated 2015) can be followed below.

pEC50: −log10 of the molar value.

The target of this assay is human GLP-1 receptor (Homo sapiens (Human), UniProt P43220). Particulars: read-out: Mean EC50; cAMP, HTRF detection, 30 min at 37° C., HEK-293 cells expressing cloned human GLP-1 receptor. A general note: Time-resolved FRET reads energy transfer from a long-lived donor to a nearby acceptor.
Sequence of human GLP-1 receptor (P43220 24-463): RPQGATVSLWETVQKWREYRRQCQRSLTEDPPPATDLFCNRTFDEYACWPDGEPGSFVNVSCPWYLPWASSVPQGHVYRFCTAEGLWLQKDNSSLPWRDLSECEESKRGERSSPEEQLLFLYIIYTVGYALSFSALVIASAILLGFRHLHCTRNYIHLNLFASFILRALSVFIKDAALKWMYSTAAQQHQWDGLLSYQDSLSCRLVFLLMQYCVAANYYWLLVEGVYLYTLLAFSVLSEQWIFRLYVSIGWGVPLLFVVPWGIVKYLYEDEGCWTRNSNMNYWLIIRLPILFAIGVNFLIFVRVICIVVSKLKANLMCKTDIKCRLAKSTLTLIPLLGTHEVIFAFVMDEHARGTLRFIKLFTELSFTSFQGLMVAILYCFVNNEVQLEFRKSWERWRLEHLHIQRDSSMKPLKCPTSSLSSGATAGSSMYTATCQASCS
Consider `CC[C@@H](c1ccccc1)N1Cc2cc3c(cc2C[C@H]1C(=O)N[C@@H](Cc1ccc(-c2ccnc(O)c2)cc1)C(=O)O)OC[C@H](c1ccc(OCc2ccc(Cl)c(Cl)c2)cc1)O3` [Example 195, (S)-2-{[(3S,8S)-3-[4-(3,4-Dichloro-benzyloxy)-phenyl]-7-((S)-1-phenyl-propyl)-2,3,6,7,8,9-hexahydro-[1,4]dioxino[2,3-g]isoquinoline-8-carbonyl]-amino}-3-[4-(2-hydroxy-pyridin-4-yl)-phenyl]-propionic acid], for which the pEC50 (as a rule, −log10 of the EC50, conventionally taken in molar units) is 6.86. The same measure for `CC[C@@H](c1ccccc1)N1Cc2cc3c(cc2C[C@H]1C(=O)N[C@@H](Cc1ccc(-c2ccc(C)nc2)cc1)C(=O)O)OC[C@H](c1ccc(OCc2ccc(Cl)c(Cl)c2)cc1)O3` [Example 196, (S)-2-{[(3S,8S)-3-[4-(3,4-Dichloro-benzyloxy)-phenyl]-7-((S)-1-phenyl-propyl)-2,3,6,7,8,9-hexahydro-[1,4]dioxino[2,3-g]isoquinoline-8-carbonyl]-amino}-3-[4-(6-methyl-pyridin-3-yl)-phenyl]-propionic acid]: 6.90; for `CC[C@@H](c1ccccc1)N1Cc2cc3c(cc2C[C@H]1C(=O)N[C@@H](Cc1ccc(-c2cnn(C)c2)cc1)C(=O)O)OC[C@H](c1ccc(OCc2ccc(Cl)c(Cl)c2)cc1)O3` [Example 197, (S)-2-{[(3S,8S)-3-[4-(3,4-Dichloro-benzyloxy)-phenyl]-7-((S)-1-phenyl-propyl)-2,3,6,7,8,9-hexahydro-[1,4]dioxino[2,3-g]isoquinoline-8-carbonyl]-amino}-3-[4-(1-methyl-1H-pyrazol-4-yl)-phenyl]-propionic acid]: 6.58.

Regarding `CC[C@@H](c1ccccc1)N1Cc2cc3c(cc2C[C@H]1C(=O)N[C@@H](Cc1ccc(-c2ccnc(CO)c2)cc1)C(=O)O)OC[C@H](c1ccc(OCc2ccc(Cl)c(Cl)c2)cc1)O3` [Example 206, (S)-2-{[(3S,8S)-3-[4-(3,4-Dichloro-benzyloxy)-phenyl]-7-((S)-1-phenyl-propyl)-2,3,6,7,8,9-hexahydro-[1,4]dioxino[2,3-g]isoquinoline-8-carbonyl]-amino}-3-[4-(2-hydroxymethyl-pyridin-4-yl)-phenyl]-propionic acid], the pEC50 is 7.21.

Turning to `CC[C@@H](c1ccccc1)N1Cc2cc3c(cc2C[C@H]1C(=O)N[C@@H](Cc1ccc(-c2ccnc(N)c2)cc1)C(=O)O)OC[C@H](c1ccc(OCc2ccc(Cl)c(Cl)c2)cc1)O3` [Example 208, (S)-3-[4-(2-Amino-pyridin-4-yl)-phenyl]-2-{[(3S,8S)-3-[4-(3,4-dichloro-benzyloxy)-phenyl]-7-((S)-1-phenyl-propyl)-2,3,6,7,8,9-hexahydro-[1,4]dioxino[2,3-g]isoquinoline-8-carbonyl]-amino}-propionic acid], the pEC50 was 7.14. The same measure for `CC[C@@H](c1ccccc1)N1Cc2cc3c(cc2C[C@H]1C(=O)N[C@@H](Cc1ccc(-c2ccnc4ccccc24)cc1)C(=O)O)OC[C@H](c1ccc(OCc2ccc(Cl)c(Cl)c2)cc1)O3` [Example 211, (S)-2-{[(3S,8S)-3-[4-(3,4-Dichloro-benzyloxy)-phenyl]-7-((S)-1-phenyl-propyl)-2,3,6,7,8,9-hexahydro-[1,4]dioxino[2,3-g]isoquinoline-8-carbonyl]-amino}-3-(4-quinolin-4-yl-phenyl)-propionic acid]: 7.68; for `CC[C@@H](c1ccccc1)N1Cc2cc3c(cc2C[C@H]1C(=O)N[C@@H](Cc1ccc(-c2ccnc(CF)c2)cc1)C(=O)O)OC[C@H](c1ccc(OCc2ccc(Cl)c(Cl)c2)cc1)O3` [Example 212, (S)-2-{[(3S,8S)-3-[4-(3,4-Dichloro-benzyloxy)-phenyl]-7-((S)-1-phenyl-propyl)-2,3,6,7,8,9-hexahydro-[1,4]dioxino[2,3-g]isoquinoline-8-carbonyl]-amino}-3-[4-(2-fluoromethyl-pyridin-4-yl)-phenyl]-propionic acid]: 7.47; for `Cc1nc(C(=O)N2Cc3cc4c(cc3C[C@H]2C(=O)N[C@@H](Cc2ccc(-c3ccnc(C)c3C)cc2)C(=O)O)OC[C@H](c2ccc(OCc3ccc(Cl)c(Cl)c3)cc2)O4)c(C)o1` [Example 216, (S)-2-{[(3S,8S)-3-[4-(3,4-Dichloro-benzyloxy)-phenyl]-7-(2,5-dimethyl-oxazole-4-carbonyl)-2,3,6,7,8,9-hexahydro-[1,4]dioxino[2,3-g]isoquinoline-8-carbonyl]-amino}-3-[4-(2,3-dimethyl-pyridin-4-yl)-phenyl]-propionic acid]: 7.77.

For the compound `Cc1nc(C(=O)N2Cc3cc4c(cc3C[C@H]2C(=O)N[C@@H](Cc2ccc(-c3ccnc(C)c3C)cc2)C(=O)O)OC[C@H](c2ccc(OCc3ccc(C)c(C)c3)cc2)O4)c(C)o1` [Example 217, (S)-2-{[(3S,8S)-3-[4-(3,4-Dimethyl-benzyloxy)-phenyl]-7-(2,5-dimethyl-oxazole-4-carbonyl)-2,3,6,7,8,9-hexahydro-[1,4]dioxino[2,3-g]isoquinoline-8-carbonyl]-amino}-3-[4-(2,3-dimethyl-pyridin-4-yl)-phenyl]-propionic acid], the negative-log EC50 (pEC50) is 7.62. Under `Cc1nc(C(=O)N2Cc3cc4c(cc3C[C@H]2C(=O)N[C@@H](Cc2ccc(-c3ccnc(C)c3C)cc2)C(=O)O)OC[C@H](c2ccc(OC[C@H]3CC[C@H](C)CC3)cc2)O4)c(C)o1` [Example 222, (S)-2-({(3S,8S)-7-(2,5-Dimethyl-oxazole-4-carbonyl)-3-[4-(trans-4-methyl-cyclohexyl-methoxy)-phenyl]-2,3,6,7,8,9-hexahydro-[1,4]dioxino[2,3-g]isoquinoline-8-carbonyl}-amino)-3-[4-(2,3-dimethyl-pyridin-4-yl)-phenyl]-propionic acid] stands 7.12.

For the compound `Cc1nc(C(=O)N2Cc3cc4c(cc3C[C@H]2C(=O)N[C@@H](Cc2ccc(-c3ccnc(C)c3C)cc2)C(=O)O)OC[C@H](c2ccc(OCC3CCC(F)(F)CC3)cc2)O4)c(C)o1` [Example 223, (S)-2-{[(3S,8S)-3-[4-(4,4-Difluoro-cyclohexylmethoxy)-phenyl]-7-(2,5-dimethyl-oxazole-4-carbonyl)-2,3,6,7,8,9-hexahydro-[1,4]dioxino[2,3-g]isoquinoline-8-carbonyl]-amino}-3-[4-(2,3-dimethyl-pyridin-4-yl)-phenyl]propionic acid], the pEC50 is 6.75.

With `Cc1nc(C(=O)N2Cc3cc4c(cc3C[C@H]2C(=O)N[C@@H](Cc2ccc(-c3ccnc(C)c3C)cc2)C(=O)O)OC[C@H](c2ccc(OCC3CCC(C(F)(F)F)CC3)cc2)O4)c(C)o1` (stereo partly drawn) [Example 225, (S)-2-({(3S,8S)-7-(2,5-Dimethyl-oxazole-4-carbonyl)-3-[4-(4-trifluoromethyl-cyclohexylmethoxy)-phenyl]-2,3,6,7,8,9-hexahydro-[1,4]dioxino[2,3-g]isoquinoline-8-carbonyl}-amino)-3-[4-(2,3-dimethyl-pyridin-4-yl)-phenyl]-propionic acid], the pEC50 is 6.74. The same measure for `Cc1nccc(-c2ccc(C[C@H](NC(=O)[C@@H]3Cc4cc5c(cc4CN3Cc3ncccc3F)O[C@@H](c3ccc(OCc4ccc(Cl)c(Cl)c4)cc3)CO5)C(=O)O)cc2)c1C` [Example 228, (S)-2-{[(3S,8S)-3-[4-(3,4-Dichloro-benzyloxy)-phenyl]-7-(3-fluoro-pyridin-2-ylmethyl)-2,3,6,7,8,9-hexahydro-[1,4]dioxino[2,3-g]isoquinoline-8-carbonyl]-amino}-3-[4-(2,3-dimethyl-pyridin-4-yl)-phenyl]-propionic acid]: 7.66.
